In US8466191B2, “Pyrroline derivatives against cell releasing tumor necrosis factor, preparation methods and uses thereof” (priority 2006, dated 2013):

test system: release of TNFα in peripheral blood mononuclear cells (PBMCs) stimulated by lipopolysaccharide (LPS); test: Inhibition of the release of TNFα in peripheral blood mononuclear cells (PBMCs) stimulated by lipopolysaccharide (LPS), ELISA; assay type: cell-based, human; details: 3 μM compound; PBMCs 1×10^6 cells/mL, 1 hour preincubation, LPS 0.1 μg/mL, 20 hours incubation, TNFα in supernatant by ELISA
Experimental: Pharmacological Research: Effects on the release of TNFα in peripheral blood mononuclear cells (PBMCs) stimulated by lipopolysaccharide (LPS) by compounds of the invention
Release of cytokine TNFα by PBMCs in the peripheral blood stimulated by lipid polysaccharide (LPS) was studied in vitro.
PBMCs collected from blood of at least three volunteers were pretreated with heparin by a gradient separation method, and washed three times with a 1640 culture medium (10% calf serum, 2 mM L-glutamine, […] mercaptoethanol, 50 μg/mL streptomycin, and 50 U/mL penicillin). The obtained PBMCs were then placed into a 24-well cell culture plate and the concentration was adjusted to 1×10^6 cells/mL with 1640 culture medium. The compounds to be tested were dissolved in dimethylsulfoxide to obtain a solution having a required concentration. The solution was added to the above-mentioned cell culture medium and cultured in an incubator (5% CO2, 90% humidity) for 1 hour. Then, LPS (Sigma) was added until the concentration reached 0.1 μg/mL (except for the control).
After 20 hours incubation, the content of TNFα in the supernatant of the PBMC culture medium was assayed using an ELISA kit (America Genzyme Co) by a standard method. The TNFα inhibition rate was calculated using values measured in the control well (not treated) and the test wells (treated with the compound to be tested). The concentration of compounds giving a 50% TNFα inhibition (IC50 value) was calculated using nonlinear regression analysis. Each concentration was determined twice and an average value was reported.

| Compound | Inhibition Rate (%) |
| --- | --- |
| COC(=O)CC(c1ccc(OC)c(OC)c1)N1C(=O)c2cscc2C1=O (centres unmarked) [Example 1, methyl 3-(3,4-dimethoxy-phenyl)-3-(4,6-dioxo-4H-thiophene[3,4-c]pyrrole-5(6H)-yl)propionate] | 87.6 |
| COC(=O)CCN1C(=O)c2cscc2C1=O [Example 15, methyl 3-(4,6-Dioxo-4H-thiophene[3,4-c]pyrrole-5(6H)-yl)propionate] | 40.9 |
| COC(=O)CCCN1C(=O)c2cscc2C1=O [Example 16, methyl 4-(4,6-Dioxo-4H-thiophene[3,4-c]pyrrole-5(6H)-yl)butyrate] | 38.4 |
| COC(=O)[C@H](c1ccccc1)N1C(=O)c2cscc2C1=O [Example 17, L-methyl 2-(4,6-dioxo-4H-thiophene[3,4-c]pyrrole-5(6H)-yl)-2-phenylacetate] | 83.5 |
| COC(=O)[C@@H](c1ccccc1)N1C(=O)c2cscc2C1=O [Example 18, D-methyl 2-(4,6-dioxo-4H-thiophene[3,4-c]pyrrole-5(6H)-yl)-2-phenylacetate] | 84.1 |
| COC(=O)CC(c1ccc(OC)c(OC)c1)N1C(=O)c2csc(N)c2C1=O (centres unmarked) [Example 23, methyl 3-(3,4-Dimethoxy-phenyl)-3-(1-amino-4,6-dioxo-4H-thiophene[3,4-c]pyrrole-5(6H)-yl)propionate] | 95.4 |
| CCOc1ccc(C(CC(=O)OC)N2C(=O)c3csc(N)c3C2=O)cc1OC (centres unmarked) [Example 26, methyl 3-(3-Methoxy-4-ethoxy-phenyl)-3-(1-amino-4,6-dioxo-4H-thiophene[3,4-c]pyrrole-5(6H)-yl)propionate] | 93.6 |
| COC(=O)[C@H](c1ccccc1)N1C(=O)c2csc(N)c2C1=O [Example 29, L-methyl 2-(1-amino-4,6-dioxo-4H-thiophene[3,4-c]pyrrole-5(6H)-yl)-2-phenylacetate] | 87.6 |
| COC(=O)[C@@H](c1ccccc1)N1C(=O)c2csc(N)c2C1=O [Example 30, D-methyl 2-(1-amino-4,6-dioxo-4H-thiophene[3,4-c]pyrrole-5(6H)-yl)-2-phenylacetate] | 91.4 |
| COC(=O)CC(c1ccc(OC)c(OC2CCCC2)c1)N1C(=O)c2csc(NC(C)=O)c2C1=O (centres unmarked) [Example 31, methyl 3-(3-Cyclopentyloxy-4-methoxy-phenyl)-3-(1-acetylamino-4,6-dioxo-4H-thiophene[3,4-c]pyrrole-5(6H)-yl)propionate] | 93.6 |
| CCOc1ccc(C(CC#N)N2C(=O)c3csc(N)c3C2=O)cc1OC (centres unmarked) [Example 38, 3-(3-Methoxy-4-ethoxy-phenyl)-3-(1-amino-4,6-dioxo-4H-thiophene[3,4-c]pyrrole-5(6H)-yl)propionitrile] | 94.9 |
| COc1ccc(C(CC#N)N2C(=O)c3csc(N)c3C2=O)cc1OC (centres unmarked) [Example 39, 3-(3,4-dimethoxy-phenyl)-3-(1-amino-4,6-dioxo-4H-thiophene[3,4-c]pyrrole-5(6H)-yl)propionitrile] | 93.4 |
| COc1cc(C(CC#N)N2C(=O)c3csc(N)c3C2=O)ccc1OCc1ccccc1 (centres unmarked) [Example 40, 3-(3-Methoxy-4-benzyloxyphenyl)-3-(1-amino-4,6-dioxo-4H-thiophene[3,4-c]pyrrole-5(6H)-yl)propionitrile] | 83.6 |
| CCOc1cc(C(CC#N)N2C(=O)c3csc(N)c3C2=O)ccc1OC (centres unmarked) [Example 41, 3-(3-Ethoxy-4-methoxy-phenyl)-3-(1-amino-4,6-dioxo-4H-thiophene[3,4-c]pyrrole-5(6H)-yl)propionitrile] | 91.2 |
| COc1ccc(C(CC#N)N2C(=O)c3csc(N)c3C2=O)cc1OC1CCCC1 (centres unmarked) [Example 42, 3-(3-Cyclopentyloxy-4-methoxy-phenyl)-3-(1-amino-4,6-dioxo-4H-thiophene[3,4-c]pyrrole-5(6H)-yl)propionitrile] | 94.8 |
| COc1cc(C(CCN(C)C)N2C(=O)c3cscc3C2=O)ccc1OCc1ccccc1 (centres unmarked) [Example 54, 5-(1-(3-Methoxy-4-benzyloxyphenyl)-3-dimethylamino-propyl)-5H-thiophene[3,4-c]pyrrole-4,6-dione] | 41.4 |
| CCN(CC)CCC(c1ccc(OCc2ccccc2)c(OC)c1)N1C(=O)c2cscc2C1=O (centres unmarked) [Example 55, 5-(1-(3-Methoxy-4-benzyloxyphenyl)-3-diethylamino-propyl)-5H-thiophene[3,4-c]pyrrole-4,6-dione] | 50.2 |
| CCOc1ccc(C(CC(=O)O)N2C(=O)c3cscc3C2=O)cc1OC (centres unmarked) [Example 58, 3-(3-Methoxy-4-ethoxy-phenyl)-3-(4,6-dioxo-4H-thiophene[3,4-c]pyrrole-5(6H)-yl)propionic acid] | 20.7 |
| CCOc1ccc(C(CC(=O)NO)N2C(=O)c3cscc3C2=O)cc1OC (centres unmarked) [Example 59, 3-(3-Methoxy-4-ethoxy-phenyl)-3-(4,6-dioxo-4H-thiophene[3,4-c]pyrrole-5(6H)-yl)-N-hydroxy propionamide] | 80 |

same assay, conditions: Homo sapiens, PBMC; 3 μM compound; PBMCs 1×10^6 cells/mL, 1 hour preincubation, LPS 0.1 μg/mL, 20 hours incubation, TNFα in supernatant by ELISA; read-out: Inhibition Rate (%)

| Compound | inhibition at 3 µM [%] |
| --- | --- |
| O=C1CCC(N2C(=O)c3ccccc3C2=O)C(=O)N1 (centres unmarked) [Thalidomide, reference compound] | 22 |
